In PubChem BioAssay AID849 (SRMLSC, 2007):
pIC50: −log10 of the molar value. Activity calls are given as the source filed them. The rule behind the calls is not given here.

System: Saccharomyces cerevisiae lifespan shortening, growth inhibition
Assay: Saccharomyces cerevisiae growth inhibition potency – dose response (AID 849);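 note: yeast growth read as optical density after two days at 30 degrees C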

| SMILES | IC50 | pIC50 |
| --- | --- | --- |
| COc1ccc(OC)c(CCNC(=O)Cn2sc3nc(C)cc(C)c3c2=O)c1 | > 100 µM (inactive) |  |
| C=C(C)COc1ccc(-c2[nH]ncc2-c2ccccc2OC)c(O)c1 | > 100 µM (inactive) |  |
| CN(O)/C=c1/ccc2c(n1)C(=O)C=CC=2 |  | 5.09 |
| CCC(=O)NC(c1ccc(C)cc1)c1cc([N+](=O)[O-])c2cccnc2c1O (stereo not drawn) |  | 4.60 |
| O=C(O)c1ccccc1C(=O)NNc1ccc(Cl)cc1 |  | 5.34 |
| COc1ccc2c(c1)c1nnc(SC)nc1n2C |  | 4.36 |
| CCN(CC)S(=O)(=O)c1ccc(NC(=O)CSc2cccc[n+]2[O-])cc1 |  | 4.62 |
| O=C(c1ccccc1)c1ccc2nc(N3CCCCC3)c3nncn3c2c1 | > 100 µM (inactive) |  |
| CN1CSC(=S)N(C)C1 |  | 4.76 |
| O/N=C/c1cc(Cl)ccc1OCc1cccc2ccccc12 | > 100 µM (inactive) |  |
| CCOc1ccc(N/N=C(/C#N)C(N)=O)cc1 |  | 5.11 |
| Cn1c(-c2ccco2)nc2cc3ccccc3cc21 |  | 4.40 |
| O=c1c(-c2ccc(Cl)cc2)[n+]([O-])c2ccccc2n1O |  | 5.10 |
| Cc1cccc(N=Nc2ccc(O)c3ncccc23)c1 |  | 4.46 |
| FC(F)Sc1ccc(Nc2ncnc3nc[nH]c23)cc1 | > 100 µM (inactive) |  |
| COc1cc(OC)nc(NC(=O)CS(=O)(=O)c2ccccc2)n1 |  | 4.48 |
| Cc1ccc(-c2nn(C(C)(C)C)c3ncnc(N)c23)cc1 |  | 5.76 |

| SMILES | IC50 | pIC50 |
| --- | --- | --- |
| Oc1c(Cl)cc(Cl)cc1Sc1cc(Cl)cc(Cl)c1O |  | 4.59 |
| O=c1cccc2n1Cc1cc3ccccc3nc1-2 |  | 4.53 |
| CCSc1nc2ccccc2n1S(=O)(=O)c1ccccc1 | > 100 µM (inactive) |  |
| Oc1c(Br)cc(Br)cc1Oc1ccc(Br)cc1Br | > 100 µM (inactive) |  |
| O=[N+]([O-])c1cc(CN2CCCC2)c2cccnc2c1O | > 100 µM (inactive) |  |
| CC(C)CNC(=O)CN(C1CCCCC1)S(C)(=O)=O | > 100 µM (inactive) |  |
| CNc1nnc(-c2cc3cc(Cl)ccc3oc2=O)s1 | > 100 µM (inactive) |  |
| Oc1ccc(-c2csc(-c3ccccc3)n2)cc1O |  | 4.56 |
| S=C(NCC1CCCCC1)Nc1ccc(Oc2ccccc2)cc1 | > 100 µM (inactive) |  |
| O=c1c(-c2ccccc2)nc(-c2ccccc2)cn1O |  | 4.82 |
| CCc1oc2ccccc2c1C(=O)c1cc(Br)c(O)c(Br)c1 |  | 4.31 |
| COc1ccc(-c2cc(-c3ccccc3O)[nH]n2)cc1 | > 100 µM (inactive) |  |
| CCOC(=O)c1c(/N=C/c2cccc([N+](=O)[O-])c2O)sc(C)c1C |  | 4.73 |
| CN1CCN(Cc2cc(COCc3ccccc3)c3cccnc3c2O)CC1 |  | 4.58 |
| CCOc1cc(/C=N/Nc2ccccc2Cl)ccc1OCC(=O)O |  | 4.94 |
| COc1ccc(S(=O)(=O)n2oc(=O)cc2-c2ccccc2)cc1OC | > 100 µM (inactive) |  |
